Data as given in PMC10115881, “Disrupting the α-synuclein-ESCRT interaction with a peptide inhibitor mitigates neurodegeneration in preclinical models of Parkinson’s disease” (Nature Communications, 2023).

How the values were obtained:
Type in all cases: cell-based, human
[1] = tested on: WT a-syn-mediated cytotoxicity in HEK293 cells; experiment: Pooled lentiviral 7-mer peptide cytotoxicity screen, WT a-syn + MG132; settings: for Reads 0M MG132: Illumina reads, average Phred >30;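 for Slope Norm Reads: reads normalized to total peptide reads per sample with scalar factor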
From the text: (§1) We used a lentiviral library of 50,549 7-mer peptides enriched in PPI motifs[13] on a green fluorescent protein (GFP) scaffold (Fig. 1A). We infected cells in a pooled format and the amino acid sequence of each peptide served as its own barcode. By using a low multiplicity of infection followed by puromycin selection, each infected cell expressed one unique GFP-peptide. We screened for peptides that reduced a-syn-mediated cytotoxicity or a-syn oligomers in parallel (Fig. 1A). To cause cytotoxicity relevant to PD, we induced proteostatic stress in HEK293 cells by inhibiting the proteasome with MG132 and overexpressing human WT a-syn associated with idiopathic PD in one screen or the more toxic mutant A53T a-syn associated with familial PD in a second screen. This combination of a-syn overexpression and pharmacological proteasome inhibition led to death of most cells, with only those that expressed a protective peptide surviving. By extracting genomic DNA from the surviving cells and amplifying the peptide coding sequences, we identified the protective peptides (Fig. 1A). To detect a-syn oligomers, we used a protein fragment complementation assay (PCA) of a-syn oligomerization in HEK293 cells. In this assay, human A53T a-syn was fused to either the C- or N-terminal half of yellow fluorescent protein (YFP). No fluorescence is detectable while a-syn exists in monomers but, when a-syn oligomerizes, the two halves of YFP come in close enough proximity to form a functional, spontaneously fluorescent protein. […] Our screens yielded 10 hits (Table S1). The hit with the most reads (i.e., the most abundant) was the same peptide in all screens: IPIQLKA (named PDpep1) (Table S1). We validated the cytoprotective effects of PDpep1 in HEK293 cells overexpressing WT or A53T a-syn (Figs. 1B, S1A), as well as its ability to reduce WT or A53T a-syn oligomers in a luciferase-based PCA[18]–[20] compared to a scrambled control peptide (Figs. 1C, S1B).
(§2) HEK293T cells (ATCC, CRL-3216) were maintained in DMEM supplemented with 10% FBS and 1% pen/strep/glutamine, and the appropriate selection antibiotics when required. Lentiviruses were made in a 15 cm dish format by transfecting packaging cells (HEK293T) with a three-plasmid system (expression vector, psPAX2 and pMD2.G) and using Polyjet DNA transfection reagent (FroggaBio, SL100688.1). Viral transduction of HEK293T cells were performed with a multiplicity of infection (MOI) of 0.3. Infected cells were selected in puromycin-containing medium to eliminate uninfected cells and three aliquots of cells were collected for sampling of the initial (T0) cell population. Cells were treated with MG132 at concentrations of 0, 10, 25, or 50 µM. For the cell viability screen, surviving cells were collected and gDNA was extracted for identification of peptide inhibitors of cell toxicity. For the inhibition of a-syn aggregation screen, a protein fragment complementation assay (PCA) was used by transfecting cells with split YFP-a-syn constructs following stable expression of the peptides. Cells were sorted based on their YFP fluorescence intensities with a FACSVantage SE cell sorter (BD Bioscience) and gDNA was extracted for identification of peptides.
(§3) Genomic DNA (gDNA) from peptide expressing cells at different time-points was extracted using QIAamp DNA Blood Mini Kit. PCR amplifications of peptides from gDNA in parallel with the lentiviral plasmid library (naïve library) were performed using indexed Illumina PCR primers to incorporate both the Illumina adapter sequences and indexing sequences. Each 50 μl reaction contained 3.2 μg of template, 2× PCR buffer, 2× enhancer solution, 300 μM each dNTP, 900 nM each of Adapter A (5′-[…]-[…]-3′) and Adapter B (5′-[…]-[…]-3′), 1 mM MgSO4, 3.75 units of Platinum Pfx polymerase, and water to 50 μl. […]

[2] = tested on: A53T a-syn-mediated cytotoxicity in HEK293 cells; experiment: Pooled lentiviral 7-mer peptide cytotoxicity screen, A53T a-syn + MG132; settings: for Reads 0M MG132: Illumina reads, average Phred >30;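 for Slope Norm Reads: reads normalized to total peptide reads per sample with scalar factor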
From the text: as §1, §2, §3

A53T a-syn oligomers = experiment: Split-YFP PCA/FACS screen of A53T a-syn oligomers
From the text: as §1, §2
Cells were harvested by trypsin treatment and centrifuged at 500 × g for 5 min. The pellet was resuspended in ice-cold PBS and centrifuged again. The pellet was then resuspended at a concentration of 4 × 10^6 cells/ml in the sorting buffer, which is PBS containing 100 Kunitz DNase I/ml, 10 μg/ml propidium iodide (Sigma), and 2% FBS. The cells were then sent through a 40 μm filter to remove large clumps and loaded into either a FACScan Flow Cytometer (BD Bioscience) for cell analysis or a FACSVantage SE cell sorter (BD Bioscience) for cell sorting. The cells with positive propidium iodide staining (i.e., dead cells) were first eliminated from the analysis. […]

[3] = tested on: A53T a-syn expressing HEK293 cells; experiment: Cell Titer-Glo cell viability, A53T a-syn expressing cells; settings: A53T a-syn cells
Procedure: Oligonucleotides encoding the specific peptides were synthesized and individually cloned into the pLJM1 nGFP lentiviral vector. HEK293T cells were infected with individual constructs, and cell viability was assessed using Cell Titer-Glo luminescent assay (Promega) at 72 h post infection.
Cells were trypsinized from subconfluent cultures as described earlier, suspended in culture media, and then seeded into triplicate wells of a 96-well plate (100 µl/well) at a density of 1.5 × 10^4 cells per well with standard culture conditions of 5% CO2 at 37 °C. Cells were infected with lentivirus expressing peptide at a MOI of 5 for 72 h or transfected with plasmid for 72 h. Cell Titer-Glo reagent was added to each well (30 µL), according to the manufacturer’s protocol and […].

Substance | Reads 10M MG132 [1] | Reads 25M MG132 [1] | Slope Norm Reads [1] | Reads 0M MG132 [1] | Reads 10M MG132 [2] | Reads 25M MG132 [2] | Reads 50M MG132 [2] | Slope Norm Reads [2] | Reads 0M MG132 [2] | Reads GFP High (A53T a-syn oligomers) | Reads GFP Inter (A53T a-syn oligomers) | Reads GFP Neg (A53T a-syn oligomers) | Reads Ratio (A53T a-syn oligomers) | also measured
LPASMPC [library 7-mer, WT screen] | 16 | 27 | 0.09 | 2 |  |  |  |  |  |  |  |  |  | 
GWTTVRR [library 7-mer, A53T screen] |  |  |  |  | 1 | 29 | 322 | 0.94 | 15 |  |  |  |  | 
LPSKIYK [library 7-mer, oligomers screen] |  |  |  |  |  |  |  |  |  | 1 | 0 | 57 | 29.53 | 
QSVVTAP [library 7-mer, A53T screen] |  |  |  |  | 6 | 37 | 465 | 1.38 | 8 |  |  |  |  | 
QSVLQQV [library 7-mer, A53T screen] |  |  |  |  | 2 | 12 | 282 | 0.82 | 13 |  |  |  |  | 
EDVNKCV [library 7-mer, A53T screen] |  |  |  |  | 6 | 13 | 233 | 0.68 | 6 |  |  |  |  | 
MQMKLSQ [library 7-mer, oligomers screen] |  |  |  |  |  |  |  |  |  | 1 | 0 | 70 | 36.15 | 
LQVGVAV [library 7-mer, WT screen] | 25 | 23 | 0.09 | 1 |  |  |  |  |  |  |  |  |  | 
ECHTKIR [library 7-mer, oligomers screen] |  |  |  |  |  |  |  |  |  | 1 | 0 | 76 | 39.21 | 
QAELSNS [library 7-mer, A53T screen] |  |  |  |  | 8 | 10 | 235 | 0.69 | 6 |  |  |  |  | 
CFLFQIQ [library 7-mer, oligomers screen] |  |  |  |  |  |  |  |  |  | 1 | 0 | 88 | 45.32 | 
GAAAGGT [library 7-mer, WT screen] | 10 | 17 | 0.06 | 1 |  |  |  |  |  |  |  |  |  | 
CHMP2B 1-178: shorter truncated version of CHMP2B (amino acids 1–178), implicated in FTD |  |  |  |  |  |  |  |  |  |  |  |  |  | Effect on cell survival/viability [3]: increased toxicity
WPRYPHI [library 7-mer, oligomers screen] |  |  |  |  |  |  |  |  |  | 1 | 0 | 92 | 47.36 | 
AAYNLCA [library 7-mer, WT screen] | 14 | 19 | 0.07 | 1 |  |  |  |  |  |  |  |  |  | 
CMVHSAG [library 7-mer, WT screen] | 14 | 33 | 0.08 | 4 |  |  |  |  |  |  |  |  |  | 
QSPSSAW [library 7-mer, A53T screen] |  |  |  |  | 45 | 59 | 284 | 0.82 | 9 |  |  |  |  | 
DWLMVNL [library 7-mer, WT screen] | 13 | 29 | 0.13 | 1 |  |  |  |  |  |  |  |  |  | 
RAPSCHL [library 7-mer, WT screen] | 13 | 33 | 0.15 | 1 |  |  |  |  |  |  |  |  |  | 
VYLDILG [library 7-mer, oligomers screen] |  |  |  |  |  |  |  |  |  | 1 | 0 | 59 | 30.55 | 
CKYRSVL [library 7-mer, A53T screen] |  |  |  |  | 7 | 11 | 438 | 1.30 | 5 |  |  |  |  | 
QVSVAQQ [library 7-mer, A53T screen] |  |  |  |  | 13 | 120 | 246 | 0.69 | 45 |  |  |  |  | 
PAMQIDG [library 7-mer, A53T screen] |  |  |  |  | 20 | 53 | 337 | 0.96 | 32 |  |  |  |  | 
LKRDQPV [library 7-mer, oligomers screen] |  |  |  |  |  |  |  |  |  | 3 | 0 | 118 | 30.30 | 
LSGECVP [library 7-mer, WT screen] | 28 | 28 | 0.07 | 3 |  |  |  |  |  |  |  |  |  | 
TQKRELT [library 7-mer, oligomers screen] |  |  |  |  |  |  |  |  |  | 1 | 0 | 69 | 35.64 | 
NNQYSFV [library 7-mer, oligomers screen] |  |  |  |  |  |  |  |  |  | 1 | 0 | 58 | 30.04 | 
PLPTGMG [library 7-mer, WT screen] | 3 | 20 | 0.08 | 1 |  |  |  |  |  |  |  |  |  | 
